Experimental data: US20230123334A1, “AMINO LIPID COMPOUND, PREPARATION METHOD THEREFOR, AND APPLICATION THEREOF” (SHENZHEN SHENXIN BIOTECHNOLOGY CO., LTD., priority 2020, published 2023)

Test system: HEK293 cells
Assay: Preliminary screening as DNA vectors, GFP transfection of HEK293 cells
Format: cell-based
Conditions: amino lipid/DOPE liposome with 75 ng plasmid DNA (psin-EGFP-IRES-Puro); number of GFP-expressing cells divided by total nuclei (Hoechst)
Summary of the method: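 HEK293 cells in DMEM/10% FBS transfected with 75 ng EGFP plasmid per well complexed with amino lipid/DOPE liposomes in pH 5.6 sodium acetate. Hoechst nuclear stain added 20-24 h post-transfection, then cells cultured another 20-24 h. Confocal imaging gives GFP-positive cells as % of total nuclei.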

Row | Structure (SMILES) | Absolute DNA transfection efficiency in HEK293 cells [%]
1 | CCCCCCCCCCCCN(CCCCCCCCCCCC)c1nc(NCCCN(C)C)nc(SCCCCCCCCC)n1 [S9^2N12 D6] | 1.1
2 | CCCCCCCCCCCCN(CCCCCCCCCCCC)c1nc(NCCN(CC)CC)nc(SCCCCCCCCC)n1 [S9^2N12 D7] | 0.2
3 | CCCCCCCCCCCCN(CCCCCCCCCCCC)c1nc(NCCCN2CCOCC2)nc(SCCCCCCCCC)n1 [S9^2N12 D8] | 0.0
4 | CCCCCCCCCCCCN(CCCCCCCCCCCC)c1nc(NCCCN2CCN(C)CC2)nc(SCCCCCCCCC)n1 [S9^2N12 D9] | 0.6
5 | CCCCCCCCCCCCN(CCCCCCCCCCCC)c1nc(NCC2CCN(C)CC2)nc(SCCCCCCCCC)n1 [S9^2N12 D10] | 1.1
6 | CCCCCCCCCCSc1nc(NCCCCCC)nc(NCCN(C)C)n1 [S10N6 D1] | 6.9
7 | CCCCCCCCCCSc1nc(NCCCCCC)nc(NCCN2CCOCC2)n1 [S10N6 D2] | 0.5
8 | CCCCCCCCCCSc1nc(NCCCCCC)nc(NCCN2CCCC2)n1 [S10N6 D3] | 7.3
9 | CCCCCCCCCCSc1nc(NCCCCCC)nc(NCCN2CCCCC2)n1 [S10N6 D4] | 5.7
10 | CCCCCCCCCCSc1nc(NCCCCCC)nc(NCCN2CCN(C)CC2)n1 [S10N6 D5] | 7.0
11 | CCCCCCCCCCSc1nc(NCCCCCC)nc(NCCCN(C)C)n1 [S10N6 D6] | 3.5
12 | CCCCCCCCCCSc1nc(NCCCCCC)nc(NCCN(CC)CC)n1 [S10N6 D7] | 6.6
13 | CCCCCCCCCCSc1nc(NCCCCCC)nc(NCCCN2CCOCC2)n1 [S10N6 D8] | 0.6
14 | CCCCCCCCCCSc1nc(NCCCCCC)nc(NCCCN2CCN(C)CC2)n1 [S10N6 D9] | 5.5
15 | CCCCCCCCCCSc1nc(NCCCCCC)nc(NCC2CCN(C)CC2)n1 [S10N6 D10] | 0.9
16 | CCCCCCCCCCSc1nc(NCCCCCCC)nc(NCCN(C)C)n1 [S10N7 D1] | 8.2
17 | CCCCCCCCCCSc1nc(NCCCCCCC)nc(NCCN2CCOCC2)n1 [S10N7 D2] | 2.4
18 | CCCCCCCCCCSc1nc(NCCCCCCC)nc(NCCN2CCCC2)n1 [S10N7 D3] | 7.4
19 | CCCCCCCCCCSc1nc(NCCCCCCC)nc(NCCN2CCCCC2)n1 [S10N7 D4] | 3.6
20 | CCCCCCCCCCSc1nc(NCCCCCCC)nc(NCCN2CCN(C)CC2)n1 [S10N7 D5] | 7.5
21 | CCCCCCCCCCSc1nc(NCCCCCCC)nc(NCCCN(C)C)n1 [S10N7 D6] | 6.2
22 | CCCCCCCCCCSc1nc(NCCCCCCC)nc(NCCN(CC)CC)n1 [S10N7 D7] | 8.1
23 | CCCCCCCCCCSc1nc(NCCCCCCC)nc(NCCCN2CCOCC2)n1 [S10N7 D8] | 2.6
24 | CCCCCCCCCCSc1nc(NCCCCCCC)nc(NCCCN2CCN(C)CC2)n1 [S10N7 D9] | 4.5
25 | CCCCCCCCCCSc1nc(NCCCCCCC)nc(NCC2CCN(C)CC2)n1 [S10N7 D10] | 1.1

Row | Structure (SMILES) | Absolute DNA transfection efficiency in HEK293 cells [%]
26 | CCCCCCCCCCSc1nc(NCCCCCCCC)nc(NCCN(C)C)n1 [S10N8 D1] | 7.1
27 | CCCCCCCCCCSc1nc(NCCCCCCCC)nc(NCCN2CCOCC2)n1 [S10N8 D2] | 3.7
28 | CCCCCCCCCCSc1nc(NCCCCCCCC)nc(NCCN2CCCC2)n1 [S10N8 D3] | 3.9
29 | CCCCCCCCCCSc1nc(NCCCCCCCC)nc(NCCN2CCCCC2)n1 [S10N8 D4] | 2.1
30 | CCCCCCCCCCSc1nc(NCCCCCCCC)nc(NCCN2CCN(C)CC2)n1 [S10N8 D5] | 13.2
31 | CCCCCCCCCCSc1nc(NCCCCCCCC)nc(NCCCN(C)C)n1 [S10N8 D6] | 10.7
32 | CCCCCCCCCCSc1nc(NCCCCCCCC)nc(NCCN(CC)CC)n1 [S10N8 D7] | 2.0
33 | CCCCCCCCCCSc1nc(NCCCCCCCC)nc(NCCCN2CCOCC2)n1 [S10N8 D8] | 3.4
34 | CCCCCCCCCCSc1nc(NCCCCCCCC)nc(NCCCN2CCN(C)CC2)n1 [S10N8 D9] | 5.6
35 | CCCCCCCCCCSc1nc(NCCCCCCCC)nc(NCC2CCN(C)CC2)n1 [S10N8 D10] | 0.6
36 | CCCCCCCCCCSc1nc(NCCCCCCCCC)nc(NCCN(C)C)n1 [S10N9 D1] | 7.1
37 | CCCCCCCCCCSc1nc(NCCCCCCCCC)nc(NCCN2CCOCC2)n1 [S10N9 D2] | 3.7
38 | CCCCCCCCCCSc1nc(NCCCCCCCCC)nc(NCCN2CCCC2)n1 [S10N9 D3] | 4.9
39 | CCCCCCCCCCSc1nc(NCCCCCCCCC)nc(NCCN2CCCCC2)n1 [S10N9 D4] | 2.7
40 | CCCCCCCCCCSc1nc(NCCCCCCCCC)nc(NCCN2CCN(C)CC2)n1 [S10N9 D5] | 11.9
41 | CCCCCCCCCCSc1nc(NCCCCCCCCC)nc(NCCCN(C)C)n1 [S10N9 D6] | 21.0
42 | CCCCCCCCCCSc1nc(NCCCCCCCCC)nc(NCCN(CC)CC)n1 [S10N9 D7] | 6.9
43 | CCCCCCCCCCSc1nc(NCCCCCCCCC)nc(NCCCN2CCOCC2)n1 [S10N9 D8] | 3.4
44 | CCCCCCCCCCSc1nc(NCCCCCCCCC)nc(NCCCN2CCN(C)CC2)n1 [S10N9 D9] | 12.0
45 | CCCCCCCCCCSc1nc(NCCCCCCCCC)nc(NCC2CCN(C)CC2)n1 [S10N9 D10] | 4.5
46 | CCCCCCCCCCCNc1nc(NCCN(C)C)nc(SCCCCCCCCCC)n1 [S10N11 D1] | 4.8
47 | CCCCCCCCCCCNc1nc(NCCN2CCOCC2)nc(SCCCCCCCCCC)n1 [S10N11 D2] | 1.5
48 | CCCCCCCCCCCNc1nc(NCCN2CCCC2)nc(SCCCCCCCCCC)n1 [S10N11 D3] | 12.6
49 | CCCCCCCCCCCNc1nc(NCCN2CCCCC2)nc(SCCCCCCCCCC)n1 [S10N11 D4] | 8.7
50 | CCCCCCCCCCCNc1nc(NCCN2CCN(C)CC2)nc(SCCCCCCCCCC)n1 [S10N11 D5] | 7.2

Row | Structure (SMILES) | Absolute DNA transfection efficiency in HEK293 cells [%]
51 | CCCCCCCCCCCNc1nc(NCCCN(C)C)nc(SCCCCCCCCCC)n1 [S10N11 D6] | 26.5
52 | CCCCCCCCCCCNc1nc(NCCN(CC)CC)nc(SCCCCCCCCCC)n1 [S10N11 D7] | 5.0
53 | CCCCCCCCCCCNc1nc(NCCCN2CCOCC2)nc(SCCCCCCCCCC)n1 [S10N11 D8] | 3.8
54 | CCCCCCCCCCCNc1nc(NCCCN2CCN(C)CC2)nc(SCCCCCCCCCC)n1 [S10N11 D9] | 10.8
55 | CCCCCCCCCCCNc1nc(NCC2CCN(C)CC2)nc(SCCCCCCCCCC)n1 [S10N11 D10] | 5.4
56 | CCCCCCCCCCCCNc1nc(NCCN(C)C)nc(SCCCCCCCCCC)n1 [S10N12 D1] | 1.8
57 | CCCCCCCCCCCCNc1nc(NCCN2CCOCC2)nc(SCCCCCCCCCC)n1 [S10N12 D2] | 3.7
58 | CCCCCCCCCCCCNc1nc(NCCN2CCCC2)nc(SCCCCCCCCCC)n1 [S10N12 D3] | 7.2
59 | CCCCCCCCCCCCNc1nc(NCCN2CCCCC2)nc(SCCCCCCCCCC)n1 [S10N12 D4] | 4.7
60 | CCCCCCCCCCCCNc1nc(NCCN2CCN(C)CC2)nc(SCCCCCCCCCC)n1 [S10N12 D5] | 2.6
61 | CCCCCCCCCCCCNc1nc(NCCCN(C)C)nc(SCCCCCCCCCC)n1 [S10N12 D6] | 19.8
62 | CCCCCCCCCCCCNc1nc(NCCN(CC)CC)nc(SCCCCCCCCCC)n1 [S10N12 D7] | 5.9
63 | CCCCCCCCCCCCNc1nc(NCCCN2CCOCC2)nc(SCCCCCCCCCC)n1 [S10N12 D8] | 5.3
64 | CCCCCCCCCCCCNc1nc(NCCCN2CCN(C)CC2)nc(SCCCCCCCCCC)n1 [S10N12 D9] | 3.6
65 | CCCCCCCCCCCCNc1nc(NCC2CCN(C)CC2)nc(SCCCCCCCCCC)n1 [S10N12 D10] | 6.8
66 | CCCCCCCCCCCCCNc1nc(NCCN(C)C)nc(SCCCCCCCCCC)n1 [S10N13 D1] | 6.1
67 | CCCCCCCCCCCCCNc1nc(NCCN2CCOCC2)nc(SCCCCCCCCCC)n1 [S10N13 D2] | 4.2
68 | CCCCCCCCCCCCCNc1nc(NCCN2CCCC2)nc(SCCCCCCCCCC)n1 [S10N13 D3] | 7.7
69 | CCCCCCCCCCCCCNc1nc(NCCN2CCCCC2)nc(SCCCCCCCCCC)n1 [S10N13 D4] | 4.2
70 | CCCCCCCCCCCCCNc1nc(NCCN2CCN(C)CC2)nc(SCCCCCCCCCC)n1 [S10N13 D5] | 2.1
71 | CCCCCCCCCCCCCNc1nc(NCCCN(C)C)nc(SCCCCCCCCCC)n1 [S10N13 D6] | 7.9
72 | CCCCCCCCCCCCCNc1nc(NCCN(CC)CC)nc(SCCCCCCCCCC)n1 [S10N13 D7] | 4.4
73 | CCCCCCCCCCCCCNc1nc(NCCCN2CCOCC2)nc(SCCCCCCCCCC)n1 [S10N13 D8] | 5.7
74 | CCCCCCCCCCCCCNc1nc(NCCCN2CCN(C)CC2)nc(SCCCCCCCCCC)n1 [S10N13 D9] | 0.4
